The results in this text go back to ChEMBL document CHEMBL1781948, “Cytotoxic veraguamides, alkynyl bromide-containing cyclic depsipeptides from the marine cyanobacterium cf. Oscillatoria margaritifera” (2011).

Active and inactive are the calls of the source. No cut-off for these calls is given here. Where a SMILES comes first, the peptide text is derived from it. [ ]: non-standard residue; d: D form. The star is where a group is joined. Hmpa(2S,3S) = CC[C@H](C)[C@H](O)C(=O)O; X1 = C[C@H](C(=O)*)[C@H](O)CCCC#CBr; NMeV = CN[C@H](C(=O)O)C(C)C; Hiv = CC(C)[C@H](O)C(=O)O

The test system of this test is NCI-H460. Description: Cytotoxicity against human H460 cells after 48 hrs by MTT assay. In kind it is functional.

With `CCOC(=O)[C@H](C(C)C)N(C)C(=O)[C@@H]1CCCN1C(=O)[C@@H](OC(=O)[C@H](C(C)C)N(C)C(=O)[C@@H](NC(=O)[C@@H](C)[C@H](O)CCCC#CBr)C(C)C)[C@@H](C)CC` (X1-V[NMeV][Hmpa(2S,3S)]P[NMeV]-OEt), the LD50 result was “Active”.

Turning to `CC[C@H](C)[C@@H]1OC(=O)[C@H](C(C)C)N(C)C(=O)[C@H](C(C)C)NC(=O)[C@@H](C)[C@@H](CCCC#CBr)OC(=O)[C@H](C(C)C)N(C)C(=O)[C@@H]2CCCN2C1=O` [VERAGUAMIDE A], the CC50 (NCI-H460, 48 h, read-out: LD50 (the source's name)) came out at 0.141 µM.

As to `CC(C)[C@@H]1NC(=O)[C@@H](C)[C@@H](CCCC#CBr)OC(=O)[C@H](C(C)C)N(C)C(=O)[C@@H]2CCCN2C(=O)[C@H](C(C)C)OC(=O)[C@H](C(C)C)N(C)C1=O`, the LD50 entry is “Active”.

For the compound `CCOC(=O)[C@H](C(C)C)N(C)C(=O)[C@@H]1CCCN1C(=O)[C@@H](OC(=O)[C@H](C(C)C)N(C)C(=O)[C@@H](NC(=O)[C@@H](C)[C@H](O)CCCC#CBr)C(C)C)C(C)C` (X1-V[NMeV][Hiv]P[NMeV]-OEt), the LD50 result was “Active”.

Regarding `C#CCCC[C@H]1OC(=O)[C@H](C(C)C)N(C)C(=O)[C@@H]2CCCN2C(=O)[C@H]([C@@H](C)CC)OC(=O)[C@H](C(C)C)N(C)C(=O)[C@H](C(C)C)NC(=O)[C@H]1C`, the LD50 entry is “Active”.
